In ChEMBL document CHEMBL1133492, “Design, synthesis, and biological evaluation of fluoronitrophenyl substituted folate analogues as potential inhibitors of GAR transformylase and AICAR transformylase” (Bioorg Med Chem Lett, 2000):

Molecular target: Phosphoribosylglycinamide formyltransferase (Escherichia coli) (UniProt P08179)
Assay: In vitro inhibitory activity against Glycinamide ribonucleotide transformylase (GAR Tfase) following 30 min pre-incubation at 250 uM concentration

Phosphoribosylglycinamide formyltransferase (Escherichia coli), sequence (P08179 whole entry, looked up): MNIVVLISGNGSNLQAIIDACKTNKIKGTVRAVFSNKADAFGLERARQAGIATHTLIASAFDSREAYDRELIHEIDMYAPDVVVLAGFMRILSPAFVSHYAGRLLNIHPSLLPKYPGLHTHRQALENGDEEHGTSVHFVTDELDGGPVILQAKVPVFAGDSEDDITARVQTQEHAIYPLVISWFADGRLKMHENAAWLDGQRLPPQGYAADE

Compound | inhibition [%]
Nc1nc(N)c(CCCNc2cc(F)c([N+](=O)[O-])cc2[N+](=O)[O-])c(O)n1 | 73
Nc1nc(N)c(CCCNc2cc(F)ccc2[N+](=O)[O-])c(O)n1 | 69
Nc1nc(N)c(CCCNc2cc(F)cc(F)c2[N+](=O)[O-])c(O)n1 | 70
COC(=O)c1ccc(CN(CCc2c(N)nc(N)nc2O)c2cc(F)cc(F)c2[N+](=O)[O-])cc1 | 9
COC(=O)c1ccc(CN(CCCc2c(N)nc(N)nc2O)c2cc(F)ccc2[N+](=O)[O-])cc1 | 41
COC(=O)c1ccc(CN(CCc2c(N)nc(N)nc2O)c2ccc([N+](=O)[O-])c(F)c2F)cc1 | 60
COC(=O)c1ccc(CN(CCCc2c(N)nc(N)nc2O)c2cc(F)c(F)cc2[N+](=O)[O-])cc1 | 33
COC(=O)c1ccc(CN(CCCc2c(N)nc(N)nc2O)c2cc(F)c([N+](=O)[O-])cc2[N+](=O)[O-])cc1 | 9
COC(=O)c1ccc(CN(CCc2c(N)nc(N)nc2O)c2cc(F)c([N+](=O)[O-])cc2[N+](=O)[O-])cc1 | 24
Nc1nc(N)c(CCCNc2cc(F)c(F)cc2[N+](=O)[O-])c(O)n1 | 82
COC(=O)c1ccc(CN(CCCc2c(N)nc(N)nc2O)c2cc(F)cc(F)c2[N+](=O)[O-])cc1 | 5
COC(=O)c1ccc(CN(CCc2c(N)nc(N)nc2O)c2cc(F)ccc2[N+](=O)[O-])cc1 | 43
COC(=O)c1ccc(CN(CCCc2c(N)nc(N)nc2O)c2ccc([N+](=O)[O-])c(F)c2F)cc1 | 57
COC(=O)c1ccc(CN(CCc2c(N)nc(N)nc2O)c2cc(F)c(F)cc2[N+](=O)[O-])cc1 | 3
